US9499495B2, “Quinazolines and azaquinazolines as dual inhibitors of RAS/RAF/MEK/ERK and PI3K/AKT/PTEN/mTOR pathways” (Asana Biosciences, LLC, priority 2013, dated 2016)

How the values were obtained:
pERK in A375 cells = assay: In Cell Western (ICW) assay, pERK in A375 cells; type: cell-based; settings: Homo sapiens, A-375, 3 h treatment
Procedure, shortened: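 RKO or A375 cells were exposed to compounds for 3 h at 37 °C, then fixed and stained in-cell with antibodies to pERK1/2 (T202/Y204), pS6RP or pAKT T308, followed by a Eu-labelled secondary. Time-resolved fluorescence (340/615 nm) was normalized to Hoechst, and IC50 values were fitted sigmoidally against DMSO as 0% inhibition.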

B-RAFV600E = target: T1, B-RAFV600E (Homo sapiens, UniProt P15056, V600E); assay: B-RAFV600E radiometric assay; type: biochemical; settings: read-out: Kinase assay B-Raf
T1 construct: purchased Millipore, USA 14-557
T1 sequence (P15056 416-766 V600E limits assumed): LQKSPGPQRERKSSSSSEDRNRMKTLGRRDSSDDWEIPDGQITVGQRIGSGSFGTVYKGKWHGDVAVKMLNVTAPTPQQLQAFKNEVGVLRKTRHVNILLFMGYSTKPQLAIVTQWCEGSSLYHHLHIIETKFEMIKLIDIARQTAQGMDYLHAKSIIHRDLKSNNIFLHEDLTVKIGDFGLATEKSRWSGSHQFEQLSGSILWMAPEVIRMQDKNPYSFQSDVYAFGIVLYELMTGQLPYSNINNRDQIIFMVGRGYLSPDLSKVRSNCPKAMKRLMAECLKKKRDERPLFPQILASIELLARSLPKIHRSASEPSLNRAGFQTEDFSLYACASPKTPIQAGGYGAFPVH
Procedure, shortened: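 B-RAFV600E was preincubated 45 min at rt with compound in 1% DMSO. MEK-K97M (0.5 μg), 5 μM final cold ATP and [γ-32P]ATP were then added for 2 h at rt. Phosphorylated MEK was captured on P81 paper and scintillation-counted; IC50 came from a sigmoidal dose-response fit.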

PI3Kα = target: T2, PI3Kα (Homo sapiens, UniProt P42336); assay: PI3 Kinase alpha TR-FRET assay; type: biochemical
T2 construct: made in house; host or cells: SF9 cells
T2 sequence (P42336 whole entry, species assumed): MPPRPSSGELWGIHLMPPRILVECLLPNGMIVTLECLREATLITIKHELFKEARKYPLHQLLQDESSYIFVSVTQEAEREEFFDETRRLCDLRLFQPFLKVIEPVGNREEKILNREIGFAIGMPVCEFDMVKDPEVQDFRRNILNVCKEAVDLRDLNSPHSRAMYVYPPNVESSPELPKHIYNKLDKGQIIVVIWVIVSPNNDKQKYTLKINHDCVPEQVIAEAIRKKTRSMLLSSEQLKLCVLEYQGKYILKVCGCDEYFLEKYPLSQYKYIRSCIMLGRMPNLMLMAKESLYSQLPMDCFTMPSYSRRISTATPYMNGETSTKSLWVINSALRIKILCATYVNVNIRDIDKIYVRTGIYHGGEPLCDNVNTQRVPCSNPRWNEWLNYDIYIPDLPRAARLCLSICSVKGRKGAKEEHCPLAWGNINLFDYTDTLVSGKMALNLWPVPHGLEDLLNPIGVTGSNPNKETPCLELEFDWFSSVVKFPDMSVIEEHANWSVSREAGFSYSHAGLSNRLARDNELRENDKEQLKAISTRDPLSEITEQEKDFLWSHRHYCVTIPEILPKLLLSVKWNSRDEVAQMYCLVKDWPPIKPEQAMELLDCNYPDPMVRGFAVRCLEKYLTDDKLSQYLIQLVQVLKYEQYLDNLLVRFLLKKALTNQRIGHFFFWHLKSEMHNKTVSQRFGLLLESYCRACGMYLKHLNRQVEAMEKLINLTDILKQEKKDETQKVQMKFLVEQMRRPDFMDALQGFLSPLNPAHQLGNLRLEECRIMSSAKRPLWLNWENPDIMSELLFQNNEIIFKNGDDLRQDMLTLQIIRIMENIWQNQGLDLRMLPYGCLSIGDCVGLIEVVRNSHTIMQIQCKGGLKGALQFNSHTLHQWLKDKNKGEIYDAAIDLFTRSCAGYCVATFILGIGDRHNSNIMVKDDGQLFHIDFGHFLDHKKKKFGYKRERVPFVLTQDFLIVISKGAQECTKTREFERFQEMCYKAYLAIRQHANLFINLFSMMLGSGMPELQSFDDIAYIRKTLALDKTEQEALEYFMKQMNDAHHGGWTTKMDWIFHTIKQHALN
T2 sequence (P27986 whole entry partner, species assumed): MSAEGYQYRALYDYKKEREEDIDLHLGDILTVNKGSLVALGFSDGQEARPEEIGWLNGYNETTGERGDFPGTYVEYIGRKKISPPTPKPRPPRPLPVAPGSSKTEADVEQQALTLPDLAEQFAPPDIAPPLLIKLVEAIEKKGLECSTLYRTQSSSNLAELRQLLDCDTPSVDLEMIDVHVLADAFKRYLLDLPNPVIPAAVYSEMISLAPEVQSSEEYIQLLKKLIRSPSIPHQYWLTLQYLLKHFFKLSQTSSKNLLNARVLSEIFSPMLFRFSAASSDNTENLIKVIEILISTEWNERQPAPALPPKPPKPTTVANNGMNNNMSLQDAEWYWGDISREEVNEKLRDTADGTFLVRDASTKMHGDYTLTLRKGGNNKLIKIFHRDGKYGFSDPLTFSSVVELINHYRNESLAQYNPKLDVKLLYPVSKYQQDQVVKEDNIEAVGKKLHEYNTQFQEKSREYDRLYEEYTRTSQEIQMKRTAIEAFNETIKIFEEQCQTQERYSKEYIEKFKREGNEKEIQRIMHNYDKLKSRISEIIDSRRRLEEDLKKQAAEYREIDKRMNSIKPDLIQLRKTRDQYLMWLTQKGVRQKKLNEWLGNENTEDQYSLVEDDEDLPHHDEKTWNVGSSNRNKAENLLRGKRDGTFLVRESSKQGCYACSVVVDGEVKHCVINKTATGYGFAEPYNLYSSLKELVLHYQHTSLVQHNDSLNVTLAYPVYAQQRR
Experimental: Compound inhibition for PI3Kα was determined in a homogeneous TR-FRET assay using a PI3Kα assay kit (Millipore, US, Catalog #33-016). The PI3 kinase catalyzes phosphorylation of […] (PIP2) to phosphatidylinositol 3,4,5-trisphosphate (PIP3) in the presence of ATP and Mg^2+. The PIP3 product is detected by displacement of biotin-PIP3 from an energy transfer complex consisting of Europium labeled anti-GST monoclonal antibody, a GST-tagged pleckstrin homology (PH) domain, biotinylated PIP3 and Streptavidin-Allophycocyanin (APC). Excitation of Europium in the complex results in an energy transfer to the APC and a fluorescence emission at 665 nm.
Compounds tested were dissolved in DMSO and directly distributed into 384-well plates at a volume of 0.5 μL. P110/P85a/PIP2 mixture (14.5 μL) was added to compound wells and incubated for 30 min at rt […]. P110/P85a was expressed in SF9 cells and purified in-house. 5 ng P110/P85a was used in the assay. The kinase reaction was started by the addition of ATP. The assay concentrations of both PIP2 and ATP were 40 μM. The reaction mixture was incubated for 30 min and was terminated by the addition of stop mix and detection mix. Fluorescence was measured at 615 and 665 nm upon excitation at 340 nm in a Victor V5 fluorometer (Perkin Elmer, US). The fluorescence emission ratio at 665 to 615 nm, proportional to the kinase activity, was plotted against the compound concentration to generate dose-response curves and IC50 values were determined.

mTOR kinase = target: T3, mTOR kinase (Homo sapiens, UniProt P42345); assay: mTOR kinase TR-FRET assay; type: biochemical
T3 construct: purchased Millipore, US
T3 sequence (P42345 1362-2549 limits assumed): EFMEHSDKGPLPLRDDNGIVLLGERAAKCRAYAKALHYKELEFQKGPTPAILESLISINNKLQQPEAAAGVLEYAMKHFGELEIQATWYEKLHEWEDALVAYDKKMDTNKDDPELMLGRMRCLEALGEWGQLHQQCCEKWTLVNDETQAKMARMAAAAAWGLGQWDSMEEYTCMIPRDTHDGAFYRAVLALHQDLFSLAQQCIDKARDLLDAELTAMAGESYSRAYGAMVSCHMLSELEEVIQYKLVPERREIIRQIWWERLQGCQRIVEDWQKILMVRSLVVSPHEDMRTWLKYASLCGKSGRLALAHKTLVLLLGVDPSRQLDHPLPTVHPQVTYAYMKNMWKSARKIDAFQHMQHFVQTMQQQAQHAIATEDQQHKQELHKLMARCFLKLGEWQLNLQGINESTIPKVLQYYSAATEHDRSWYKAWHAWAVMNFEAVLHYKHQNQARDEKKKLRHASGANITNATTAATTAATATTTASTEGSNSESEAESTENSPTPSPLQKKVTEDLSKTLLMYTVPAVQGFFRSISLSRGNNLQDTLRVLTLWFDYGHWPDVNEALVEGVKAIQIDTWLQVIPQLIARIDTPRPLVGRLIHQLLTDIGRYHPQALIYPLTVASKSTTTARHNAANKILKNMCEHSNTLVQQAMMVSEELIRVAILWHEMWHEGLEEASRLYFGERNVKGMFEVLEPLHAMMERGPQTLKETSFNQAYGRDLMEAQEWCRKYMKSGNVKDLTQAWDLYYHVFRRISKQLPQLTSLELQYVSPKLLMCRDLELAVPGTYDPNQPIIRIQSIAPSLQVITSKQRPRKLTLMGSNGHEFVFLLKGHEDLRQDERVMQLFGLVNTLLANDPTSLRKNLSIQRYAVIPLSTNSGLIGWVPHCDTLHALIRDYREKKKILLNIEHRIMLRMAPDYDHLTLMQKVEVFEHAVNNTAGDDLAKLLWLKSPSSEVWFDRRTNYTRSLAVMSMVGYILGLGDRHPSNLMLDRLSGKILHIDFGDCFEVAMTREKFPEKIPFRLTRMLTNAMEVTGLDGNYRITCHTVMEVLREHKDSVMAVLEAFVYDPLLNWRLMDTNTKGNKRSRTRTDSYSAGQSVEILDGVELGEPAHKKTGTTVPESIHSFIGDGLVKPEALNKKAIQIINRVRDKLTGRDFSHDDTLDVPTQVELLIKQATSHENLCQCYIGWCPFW
Procedure, shortened: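 TR-FRET with ULight-p70 S6K (Thr 389) peptide (50 nM) and 20 μM ATP in 50 mM HEPES pH 7.5, 1 mM EGTA, 3 mM MnCl2; compound pre-incubated with enzyme before substrate addition, reaction at rt, EDTA-stopped. Eu anti-phospho antibody read 665/615 nm; IC50 from sigmoidal dose-response fit.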

A375 cells = assay: XTT assay for cell viability, A375 cells; type: cell-based; settings: Homo sapiens, A-375, 72 h
Experimental: Cell lines (A375 ATCC No. CRL-1619, A2058 ATCC No. CRL-11147 and RKO ATCC No. CRL-2577, American Type Culture Collection (ATCC), Manassas Va.) once attaining ˜80% confluency were trypsinized, centrifuged and resuspended in fresh media. Cells (1000-2000/per well) were seeded in 96-well plate and incubated over-night at 37° C. in a 5% CO2 incubator. Compound dilutions were prepared in 100% DMSO followed by dilutions in the respective media. The cells were treated with NCEs for 72 h at 37° C. in 5% CO2 incubator. After 72 h, freshly prepared XTT (1 mg/ml)/PMS (25 μM) solution was added, incubated for 2 to 3 h at 37° C. and the absorbance was measured at 450 nm using an ELISA plate reader. Keeping DMSO control as 100%, the effect of the compound to inhibit the cell proliferation was calculated and the GI50 values were determined using sigmoidal dose response curve fit in GraphPad Prism® v5 software.

IC50 (pERK in A375 cells) [nM]	IC50 (B-RAFV600E) [nM]	IC50 (PI3Kα) [nM]	IC50 (mTOR kinase) [nM]	IC50 (A375 cells) [nM]	Structure (SMILES)
100 to 1000	100 to 1000	100 to 1000	–	–	CCCS(=O)(=O)Nc1cccc(-c2cc(OC)c3nc(-c4cnc(N)cc4C(F)(F)F)nc(N4CCOCC4)c3c2)c1F [Example 25, N-(3-(2-(6-amino-4-(trifluoromethyl)pyridin-3-yl)-8-methoxy-4-morpholinoquinazolin-6-yl)-2-fluorophenyl)propane-1-sulfonamide]
–	1 to 100	100 to 1000	–	–	CCCS(=O)(=O)Nc1cccc(-c2cc(OC)c3nc(-c4cnc(N)c(Cl)c4)nc(N4CCOCC4)c3c2)c1F [Example 48, N-(3-(2-(6-amino-5-chloropyridin-3-yl)-8-methoxy-4-morpholinoquinazolin-6-yl)-2-fluorophenyl)propane-1-sulfonamide]
1 to 100	1 to 100	100 to 1000	1 to 100	–	NCCOc1cc(-c2cccc(NS(=O)(=O)CCCF)c2F)cc2c(N3CCOCC3)nc(-c3ccc(N)nc3)nc12 [Example 56, N-(3-(8-(2-aminoethoxy)-2-(6-aminopyridtn-3-yl)-4-morpholinoquinazolin-6-yl)-2-fluorophenyl)-3-fluoropropane-1-sulfonamide]
1 to 100	1 to 100	–	100 to 1000	1 to 100	COc1cc(-c2c(F)ccc(NS(=O)(=O)CCCF)c2F)cc2c(N3CCOCC3)nc(-c3cnc(N)nc3)nc12 [Example 82, N-(3-(2-(2-aminopyrimidin-5-yl)-8-methoxy-4-morpholinoquinazolin-6-yl)-2,4-difIuorophenyl)-3-fluoropropane-1-sulfonamide]
–	1 to 100	100 to 1000	–	–	COc1cc(-c2c(F)ccc(NS(=O)(=O)CCCF)c2F)cc2c(N3CCOCC3)nc(-c3cnc(N)cc3C(F)(F)F)nc12 [Example 84, N-(3-(2-(6-amino-4-(trifluoromethyl)pyridin~3-yl)-8-methoxy-4-morpholinoquinazolin-6-yl)-2,4-difluorophenyl)-3-fluoropropane-1-sulfonamide]
–	1 to 100	100 to 1000	100 to 1000	–	O=S(=O)(CCCF)Nc1cccc(-c2ccc3nc(-c4cccc5[nH]ncc45)nc(N4CCOCC4)c3n2)c1F [Example 89, N-(3-(2-(1H-indazol-4-yl)-4-morpholinopyrido[3,2-d]pyrimidin-6-yl)-2-fluorophenyl)-3-fluoropropane-1-sulfonamide]
–	1 to 100	1 to 100	1 to 100	–	O=S(=O)(CCCF)Nc1cccc(-c2ccc3nc(-c4cnc5[nH]ccc5c4)nc(N4CCOCC4)c3n2)c1F [Example 91, 3-fluoro-N-(2-fluoro-3-(4-morpholtno-2-(1H-pyrrolo[2,3-b]pyrldin-5-yl)pyrido[3,2-d]pyrimidin-6-yl)phenyl)propane-1-sulfonamide]
–	1 to 100	1 to 100	100 to 1000	–	Nc1ncc(-c2nc(N3CCOCC3)c3nc(-c4cccc(NS(=O)(=O)c5c(F)cccc5F)c4F)ccc3n2)cn1 [Example 98, N-(3-(2-(2-aminopyrimidin-5-yl)-4-morpholinopyrido[3,2-d]pyrimidin-6-yl)-2-fluorophenyl)-2,6-difluorobenzenesulfonamide]
–	1 to 100	100 to 1000	–	–	C[C@@H]1COCCN1c1nc(-c2cnc(N)cc2C(F)(F)F)nc2ccc(-c3cccc(NS(=O)(=O)CCCF)c3F)nc12 [Example 107, (R)-N-(3-(2-(6-amlno-4-(trifluoromethyl)pyridin-3-yl)-4-(3-methylmorpholino)pyrido[3,2-d]pyrimidin-6-yl)-2-fluorophenyl)-3-fluoropropane-1-sulfonamide]
–	1 to 100	100 to 1000	–	–	CCCNc1ncc(-c2nc(N3CCOCC3)c3nc(-c4cccc(NS(=O)(=O)CCCF)c4F)ccc3n2)cn1 [Example 112, 3-fluoro-N-(2-fluoro-3-(4-morpholino-2-(2-(propylamino)pyrimidin-5-yl)pyrido[3,2-d]pyrimidin-6-yl)phenyl)propane-1-sulfonamide]
–	1 to 100	100 to 1000	100 to 1000	–	CCCNc1ccc(-c2nc(N3CCOCC3)c3nc(-c4cccc(NS(=O)(=O)CCCF)c4F)ccc3n2)cn1 [Example 115, 3-fluoro-N-(2-fluoro-3-(4-morpholino-2-(6-(propylamino)pyridin-3-yl)pyrido[3,2-d]pyrimidin-6-yl)phenyl)propane-1-sulfonamide]
100 to 1000	1 to 100	1 to 100	100 to 1000	–	CNc1ncc(-c2nc(N3CCOCC3)c3nc(-c4cccc(NS(=O)(=O)CCCF)c4F)ccc3n2)cn1 [Example 121, 3-fluoro-N-(2-fluoro-3-(2-(2-(methylamino)pyrimidin-5-yl)-4-morpholinopyrido[3,2-d]pyrimidin-6-yl)phenyl)propane-1-sulfonamide]
–	1 to 100	100 to 1000	–	–	CCNc1ncc(-c2nc(N3CCOCC3)c3nc(-c4cccc(NS(=O)(=O)CCCF)c4F)ccc3n2)cn1 [Example 122, N-(3-(2-(2-(ethylamino)pyrimidin-5-yl)-4-morpholinopyrido[3,2-d]pyrimidin-6-yl)-2-fluorophenyl)-3-fluoropropane-1-sulfonamide]
100 to 1000	100 to 1000	1 to 100	1 to 100	–	C[C@H]1COCCN1c1nc(-c2ccc(N)nc2)nc2ccc(-c3cccc(NS(=O)(=O)CCCF)c3F)nc12 [Example 127, (S)-N-(3-(2-(6-aminopyridin-3-yl)-4-(3-methylmorpholino)pyrido[3,2-d]pyrimidin-6-yl)-2-fluorophenyl)-3-fluoropropane-1-sulfonamide]
100 to 1000	1 to 100	1 to 100	100 to 1000	–	C[C@H]1COCCN1c1nc(-c2cnc(N)nc2)nc2ccc(-c3cccc(NS(=O)(=O)CCCF)c3F)nc12 [Example 128, (S)-N-(3-(2-(2-aminopyrimidin-5-yl)-4-(3-methylrnorpholino)pyrido[3,2-d]pyrimidin-6-yl)-2-fluorophenyl)-3-fluoropropane-1-sulfonamide]
100 to 1000	100 to 1000	1 to 100	100 to 1000	–	Cc1cc(N)ncc1-c1nc(N2CCOC[C@@H]2C)c2nc(-c3cccc(NS(=O)(=O)CCCF)c3F)ccc2n1 [Example 130, (S)-N-(3-(2-(6-amino-4-methylpyridin-3-yl)-4-(3-methylmorpholino)pyrido[3,2-d]pyrimidin-6-yl)-2-fluorophenyl)-3-fluoropropane-1-sulfonamide]
100 to 1000	100 to 1000	1 to 100	100 to 1000	–	Cc1nc(N)ncc1-c1nc(N2CCOC[C@@H]2C)c2nc(-c3cccc(NS(=O)(=O)CCCF)c3F)ccc2n1 [Example 131, (S)-N-(3-(2-(2-amino-4-methylpyrimidin-5-yl)-4-(3-methylmorpholino)pyrido[3,2-d]pyrimidin-6-yl)-2-fluorophenyl)-3-fluoropropane-1-sulfonamide]
100 to 1000	1 to 100	1 to 100	100 to 1000	–	Cc1nc(N)ncc1-c1nc(N2CCOC[C@@H]2C)c2nc(-c3cccc(NS(=O)(=O)c4cc(F)ccc4F)c3F)ccc2n1 [Example 132, (S)-N-(3-(2-(2-amino-4-methylpyrimidin-5-yl)-4-(3-methylmorpholino)pyrido[3,2-d]pyrimidin-6-yl)-2-fluorophenyl)-2,5-difluorobenzenesulfonamide]
